“Also recorded” adds a separate entry of the source.
Columns and labels:
3T3-L1 adipocytes = test: In vitro cytokine measurement (real time PCR of transcripts) in adipocytes; type: cell-based, mouse; conditions: salmeterol 0.5 μM or CL316243 0.3 μM, 1 hr treatment; normalized to GAPDH
Experimental: Cell growth media consisted of Dulbecco's modified Eagle's medium supplemented with 10% heat-inactivated fetal bovine serum (Sigma, St. Louis, Mo., U.S.A.) and 1× penicillin-streptomycin (Gibco, Carlsbad, Calif., U.S.A.). Cells were maintained in a humidified atmosphere of 95% air and 5% CO2.
Two days after reaching confluence in growth media, adipogenesis was induced by incubating cells in growth media containing 0.25 μM dexamethasone (Sigma), 0.5 mM IBMX (Sigma), and 1 μM insulin (Sigma). After an additional 2 days in growth media containing 1 μM insulin, cells were grown for 6-8 days in normal growth media.
Total RNA was isolated using the RNeasy Mini Kit (Qiagen, Valencia, Calif., U.S.A.). RNA was then treated with 2 units of DNase I (Ambion, Austin, Tex., U.S.A.) at 37° C. for 30 min. Reverse transcription was performed according to the manufacturer's instructions. Briefly, the reverse transcription reaction mixture consisted of 1 μg DNase 1-treated RNA, 500 ng oligo-dT12-18, 10 mM dNTP, 40 units RNasin (Promega, Madison, Wis., U.S.A.), and 200 units of reverse transcriptase SUPERSCRIPT III™ (Invitrogen, Carlsbad, Calif., U.S.A.). cDNA synthesis was carried out at 50° C. for 1 hr followed by inactivation of reverse transcriptase at 70° C. for 15 min.
Mouse macrophages (RAW 264.7) and […] preadipocytes (3T3-L1) were obtained from the University of North Carolina Tissue Culture Facility. Cell maintenance and 3T3-L1 preadipocyte differentiation is described herein below. For pharmacological experiments, cells were seeded at a density of 5×10^5 cells/well in a 12-well plate (Corning). Total RNA was isolated and reverse transcribed as described in the supplementary materials. TNFα, IL-1β, and IL-6 transcripts were quantitated in quadruplicate by real time polymerase chain reaction using TAQMAN® Gene Expression Assays (Applied Biosystems, Foster City, Calif., U.S.A.) in an ABI PRISM 7000 Sequence Detection System. TNFα, IL-1β, and IL-6 transcript levels were normalized to Glyceraldehyde-3-phosphate dehydrogenase (GAPDH).

Sprague-Dawley rats = test: Mechanical and thermal pain behavior testing (von Frey monofilaments, radiant heat); type: in vivo, rat; conditions: for paw withdrawal frequency to mechanical stimuli (25 g monofilament) / paw withdrawal latency to thermal stimuli / paw withdrawal threshold to mechanical stimuli: OR486 or RO41-0960 30 mg/kg i.p., or 3% carrageenan i.pl.; for paw withdrawal frequency to mechanical stimuli (25 g monofilament) / paw withdrawal latency to thermal stimuli / paw withdrawal threshold to mechanical stimuli / paw withdrawal frequency to mechanical stimuli, antagonist in the absence of OR486 / paw withdrawal latency to radiant heat, antagonist in the absence of OR486 / paw withdrawal threshold to mechanical stimuli, antagonist in the absence of OR486: relative to vehicle; for paw withdrawal frequency to mechanical stimuli, antagonist in the absence of OR486 / paw withdrawal latency to radiant heat, antagonist in the absence of OR486 / paw withdrawal threshold to mechanical stimuli, antagonist in the absence of OR486: i.p. 10 min prior to vehicle, phentolamine 3, propranolol 3, SCH23390 0.2, spiperone 0.2, betaxolol 1.0, ICI118,551 0.5, SR59230A 5 mg/kg; for blockade of OR486-induced hyperalgesia / heightened pain sensitivity: antagonist i.p. prior to OR486
Experimental: Rats were placed in plexiglass cages positioned over an elevated perforated stainless steel platform and habituated to the environment for 15-25 min prior to testing. Paw withdrawal threshold to punctate mechanical stimulation was assessed using the up-down method of Chaplan et al. (1994). A series of nine calibrated filaments (with bending forces of 0.40, 0.68, 1.1, 2.1, 3.4, 5.7, 8.4, 13.2, and 25.0 g; Sammons Preston Rolyan, Bolingbrook, Ill., U.S.A.) with approximately equal logarithmic spacing between stimuli (Mean±SEM: 0.232±0.04 units) were presented to the hind paw in successive order, whether ascending or descending. Filaments were positioned in contact with the hind paw for a duration of 3 s or until a withdrawal response occurred. Testing was initiated with the middle hair of the series (3.4 g). In the absence of a paw withdrawal response, an incrementally stronger filament was presented and in the event of a paw withdrawal, an incrementally weaker filament was presented. After the initial response threshold was crossed, this procedure was repeated four times in order to obtain a total of six responses in the immediate vicinity of the threshold. The presence of paw withdrawal (X) and absence of withdrawal (O) was noted together with the terminal filament used in the series of six responses. The 50% g threshold=(10^[Xf+kδ])/10,000, where Xf=value (in log units) of the final von Frey hair used; k=tabular value of pattern of positive (X) and negative (O) responses, and δ=mean difference (in log units) between stimuli.
Immediately following determination of the response threshold, paw withdrawal frequency (%) to punctate mechanical stimulation was assessed. A von Frey monofilament with a calibrated bending force of 25 g was presented to the hind paw 10 times for a duration of 1 s with an interstimulus interval of approximately 1 s. Mechanical hyperalgesia was defined as an increase in the percentage frequency ([# of paw withdrawals/10]×100) of paw withdrawal evoked by stimulation with von Frey monofilaments.
Thermal hyperalgesia was evaluated using the radiant heat method of Hargreaves et al. (1988) in the same animals evaluated for responsiveness to von Frey monofilaments. Radiant heat was presented through the floor of a finely perforated stainless steel platform to the midplantar region of the hind paw.
After establishing stable baseline responsiveness to mechanical and thermal stimuli, separate groups of rats received intraperitoneal injections of OR486 (30 mg/kg i.p.; N=8) or vehicle (N=8) one hour prior to behavioral testing. Responsiveness to von Frey filaments was reassessed at 30 min intervals for 2 hours. Paw withdrawal latencies to radiant heat were subsequently assessed at 2.5 hours into the testing procedure. Twenty-four hours later, baseline responsiveness to mechanical and thermal stimuli was reestablished. Animals received OR486 (30 mg/kg i.p.) or vehicle (consistent with the previous day). Thirty minutes following administration of drug or vehicle, separate groups of rats received intraplantar carrageenan (N=4 per group) or saline (N=4 per group). Responsiveness to von Frey filaments was reassessed at 30 min intervals for 2 hours following the induction of inflammation. Paw withdrawal latencies to radiant heat were subsequently assessed at 2.5 hours post carrageenan.
Rats were handled and habituated to the testing environment 2-3 days prior to establishing baseline responsiveness. On test days, rats were placed in plexiglass cages positioned over an elevated perforated stainless steel platform and habituated to the environment for 15-20 minutes prior to testing. Paw withdrawal threshold to punctate mechanical stimulation was assessed using the up-down method of Chaplan (Chaplan et al. (1994)). […]

TNFα, IL-1β, and IL-6 = test: In vivo plasma cytokine measurement (ELISA); set-up: species or system rat; conditions: rats; for plasma levels of IL-1β: OR486 30 mg/kg i.p. or 3% carrageenan i.pl.; for plasma levels of IL-1β / plasma levels of IL-6 / plasma levels of TNFα: relative to vehicle; for plasma levels of IL-6 / plasma levels of TNFα: OR486 or RO41-0960 30 mg/kg i.p., or 3% carrageenan i.pl.
Experimental: Blood was centrifuged and plasma separated from red blood cells. Plasma IL-6 was measured in duplicate using enzyme-linked immunosorbant assay (ELISA) kits from R&D systems (Minneapolis, Minn., U.S.A.). Plasma TNFα and IL-1β were measured in duplicate by the University of North Carolina Proteomics Ilmmunotechnologies Core using ELISA kits from Biosource (Camarillo, Calif., U.S.A.) and the National Institute for Biological Standards and Control (UK), respectively.

[1] = OR486 30 mg/kg i.p., relative to vehicle or carrageenan in the contralateral non-inflamed paw
[2] = i.p. 10 min prior to OR486, ICI118,551 0.5 or 5.0 mg/kg, SR59230A 5 or 50 mg/kg, betaxolol 0.1, 1.0, 10 mg/kg, relative to vehicle prior to OR486
[3] = propranolol 3 mg/kg i.p. 10 minutes prior to OR486, relative to vehicle, phentolamine, SCH23390 or spiperone prior to OR486
[4] = propranolol 3 mg/kg i.p. prior to OR486, relative to vehicle prior to OR486

| Compound | paw withdrawal frequency to mechanical stimuli (25 g monofilament) (Sprague-Dawley rats) | paw withdrawal latency to thermal stimuli (Sprague-Dawley rats) | paw withdrawal threshold to mechanical stimuli (Sprague-Dawley rats) | plasma levels of IL-6 (TNFα, IL-1β, and IL-6) | plasma levels of TNFα (TNFα, IL-1β, and IL-6) | paw withdrawal frequency to mechanical stimuli, antagonist in the absence of OR486 (Sprague-Dawley rats) | paw withdrawal latency to radiant heat, antagonist in the absence of OR486 (Sprague-Dawley rats) | paw withdrawal threshold to mechanical stimuli, antagonist in the absence of OR486 (Sprague-Dawley rats) | blockade of OR486-induced hyperalgesia / heightened pain sensitivity (Sprague-Dawley rats) | also measured |
| --- | --- | --- | --- | --- | --- | --- | --- | --- | --- | --- |
| C[C@H](Cc1ccc2c(c1)OC(C(=O)[O-])(C(=O)[O-])O2)NC[C@H](O)c1cccc(Cl)c1.[Na+].[Na+] [CL316243, disodium (R,R)-5-(2-[{2-(3-chlorophenyl)-2-hydroxyethyl}-amino]propyl)-1,3-benzodioxole-2,2, dicarboxylate] | – | – | – | – | – | – | – | – | – | increase in IL-6 mRNA levels in adipocytes (3T3-L1 adipocytes): 28 fold |
| O=[N+]([O-])c1cc(O)c(O)c([N+](=O)[O-])c1 [OR486] | increased paw withdrawal frequency | decreased paw withdrawal thresholds; also recorded: decreased paw withdrawal latency | significantly decreased paw withdrawal threshold | elevated plasma levels | elevated plasma levels | – | – | – | – | degree of mechanical and thermal hyperalgesia (Sprague-Dawley rats; OR486 30 mg/kg i.p. compared with carrageenan-induced inflammation of the hindpaw): comparable to that produced by carrageenan-induced inflammation; paw withdrawal frequency to 25 g monofilament, non-inflamed paw (Sprague-Dawley rats; [1]): increased paw withdrawal frequency; paw withdrawal latency to thermal stimuli, non-inflamed paw (Sprague-Dawley rats; [1]): decreased paw withdrawal latency; paw withdrawal threshold to mechanical stimuli, non-inflamed paw (Sprague-Dawley rats; [1]): decreased paw withdrawal threshold; plasma levels of IL-1β (TNFα, IL-1β, and IL-6; 30 mg/kg): elevated plasma levels |
| O=C(c1cc(O)c(O)c([N+](=O)[O-])c1)c1ccccc1F [RO41-0960] | increased paw withdrawal frequency | decreased paw withdrawal latency | decreased paw withdrawal threshold | a trend towards elevated levels | elevated plasma levels | – | – | – | – | mechanical and thermal pain sensitivity (Sprague-Dawley rats; RO41-0960 30 mg/kg i.p.): decreased mechanical and thermal pain sensitivity; plasma proinflammatory cytokine production (TNFα, IL-1β, and IL-6; RO41-0960 30 mg/kg i.p. vs vehicle, 30 mg/kg): increased cytokine production; also recorded: increases plasma proinflammatory cytokine levels; increase in plasma levels of IL-1β (TNFα, IL-1β, and IL-6; RO41-0960 30 mg/kg i.p. vs vehicle, no statistical analysis (sample loss)): 4.5 fold |
| CC(C)NCC(O)COc1ccc(CCOCC2CC2)cc1 (stereo not shown) [betaxolol] | – | – | – | – | – | failed to affect | failed to affect | failed to affect | – | paw withdrawal latency to radiant heat after OR486, selective βAR antagonists (Sprague-Dawley rats; i.p. 10 min prior to OR486, ICI118,551 5.0 mg/kg, SR59230A 5 or 50 mg/kg, betaxolol 0.1, 1.0, 10 mg/kg, relative to vehicle prior to OR486): failed to alter; paw withdrawal frequency to mechanical stimuli after OR486, selective βAR antagonists (Sprague-Dawley rats; [2]): failed to alter; paw withdrawal threshold to mechanical stimuli after OR486, selective βAR antagonists (Sprague-Dawley rats; [2]): failed to alter |
| Cc1ccc(N(CC2=NCCN2)c2cccc(O)c2)cc1 [phentolamine] | – | – | – | – | – | failed to affect | failed to affect | failed to affect | failed to block | – |
| CC(C)NCC(O)COc1cccc2ccccc12 (stereo not shown) [propranolol] | – | – | – | – | – | failed to affect | failed to affect | failed to affect | completely blocks | paw withdrawal frequency to mechanical stimuli after OR486 (Sprague-Dawley rats; [3]): normalized; paw withdrawal latency to radiant heat after OR486 (Sprague-Dawley rats; [3]): normalized; paw withdrawal threshold to mechanical stimuli after OR486 (Sprague-Dawley rats; [3]): normalized; plasma levels of IL-1β after OR486 (TNFα, IL-1β, and IL-6; [4]): normalized plasma levels; also recorded: decreased plasma levels; plasma levels of IL-6 after OR486 (TNFα, IL-1β, and IL-6; [4]): normalized plasma levels; also recorded: decreased plasma levels; plasma levels of TNFα after OR486 (TNFα, IL-1β, and IL-6; [4]): normalized plasma levels; also recorded: decreased plasma levels |
| O=C(CCCN1CCC2(CC1)C(=O)NCN2c1ccccc1)c1ccc(F)cc1 [spiperone] | – | – | – | – | – | failed to affect | failed to affect | failed to affect | failed to block | – |
| carrageenan | increased paw withdrawal frequency | decreased paw withdrawal latency | decreased paw withdrawal threshold | elevated levels | elevated levels | – | – | – | – | plasma levels of IL-1β (TNFα, IL-1β, and IL-6): elevated levels |

— patent US11085081B2, “Methods and materials for determining pain sensitivity and predicting and treating related disorders” (The University of North Carolina at Chapel Hill, priority 2004, dated 2021)
